“Also recorded” adds a separate entry of the source. Like-named read-outs stand apart in the source and are kept apart here.
How the values were obtained:
[1] = tested on: T cell receptor/CD3 complex mediated Ca2+ signalling; test: Ca2+ signalling evoked by crosslinking of CD3 in rat encephalitogenic (MBP-specific) T cells; assay type: cell-based; details: for TCR/CD3-induced Ca2+ signalling: T-lymphocytes, summary statement
Text: Assuming that the NAADP/Ca^2+ signalling system plays an important role in T cell receptor/CD3 mediated activation, one would expect an inhibitory effect of BZ 52 on stimulation of rat encephalitogenic CD4-positive T cells via CD3 crosslinking. Thus, Fura2-loaded rat encephalitogenic CD4-positive T cells (resting) were stimulated by anti-CD3 followed by crosslinking of the primary antibody (FIG. 11, black line). A rapid high increase of [Ca^2+]i followed by a briefly elevated sustained phase was observed.
Fura2-loaded rat T cells were analyzed for [Ca^2+]i by fluorimetry. First arrow indicates addition of anti-CD3 mAb, second arrow indicates addition of a crosslinking secondary antibody. In case of BZ 52 cells were preincubated with BZ 52 (500 μM) for 60 min at RT.
Resting rat T cells were loaded with fura2/AM and suspension measurements were carried out as described in [4]. Arrows indicate time point of addition of antibody or Ca^2+ solution. A, Addition of anti-CD3-mAb (1st arrow) and a crosslinking, secondary antibody (2nd arrow). B, Bar chart summarizing data from A (transient Ca^2+ peak and Ca^2+ plateau; mean±s.e.m, n=8-9). C, Under Ca^2+ free conditions the anti-CD3-mAb (1st arrow) and secondary crosslinking antiserum (2nd arrow) were added; then [Ca^2+] was increased to 1 mM (3rd arrow). D, Bar chart summarizing data from C (transient Ca^2+ release peak, Ca^2+ influx peak, Ca^2+ influx plateau and the difference between Ca^2+ influx peak and plateau (=Overshoot); mean±s.e.m, n=6-7). The negative controls are without stimulation by anti-CD3-mAb.
[Ca^2+]i was measured by using the fluorescent indicator Fura2/AM. In brief, 10^7 cells were loaded with Fura2/AM, and fluorescence was determined in batches of 1.5×10^6 cells with an Hitachi F-2000 fluorimeter at excitation and emission wavelengths of 340 and 380 nm (exc.) and 505 nm (em.), respectively. Measurements were carried out at 20° C. At the end of each single measurement maximal and minimal ratios were determined by addition of Triton X-100 and EGTA/Tris.

[2] = tested on: myelin-basic protein (MBP) specific, CD4-positive rat T cells; test: In vitro proliferation assay (rat encephalitogenic T cells); assay type: cell-based; details: for IC50: Rattus norvegicus, CD4 positive, 3H-thymidine incorporation; for proliferation: T-lymphocytes, summary statement
Experimental: A more downstream event of T cell activation was analyzed in myelin-basic protein (MBP) specific, CD4-positive rat T cells. These cells can be driven into proliferation by MBP presented by irradiated thymocytes or by the mitogen concanavalin A (ConA).
Resting MBP-GFP T cells were plated in 96-wells (5×10^4 well) and stimulated by the addition of thymocytes (1.5×10^6/well) and MBP ([…]) or ConA (1.25 μg/ml), respectively.
After 2 days 3H-thymidine (Amersham Biosciences) was added to the activated cells (final concentration 4 μCi/ml); after 16 h of incubation 3H-thymidine incorporation was measured (Matrix 9600-Direct Beta Counter Packad).
Cells were stimulated in presence of MBP-pulsed irradiated APCs and increasing concentrations of BZ194. After 48 h cells were collected for cytofluorometric cell count A and RNA extraction was performed for quantitative PCR analysis (IL2) B. Effect of BZ194 on pre-activated T cell blasts C. Amplification of MBP-specific T cells which had been incubated before in the presence of DMSO or 0.5 mM or 1 mM BZ194 D.
TMBP-GFP cells were co-cultured for 48 h in 96well plates (in DMEM 1% rat serum) with APCs in presence of specific antigen ([…]) or without. Amplification of TMBP-GFP cells was measured by cytofluorometry as described (Kawakami et al. 2005, J.I.). Their numbers were determined in relation to a known absolute number of added phycoerythrin-labeled plastic beads (Becton-Dickinson). The amplification rate was calculated in relation to the GFP+T cell numbers at day 0. Alternatively, [^3H]dT (2 Ci/mmol; Amersham-Buchler) incorporation was used to evaluate proliferation. The radioactive label present in the different cultures was determined as described (Flügel et al., 2001, Immunity)

[3] = tested on: encephalitogenic (MBP-specific GFP) T cells and inflammatory cells in CNS and spleen; test: Cytofluorometric cell counts in organs of EAE animals; assay type: in vivo, rat
Experimental: Animals (6 per group, body weight approx. 150 g) were injected i.p. twice per day with either PBS (vehicle control), nicotinic acid (50 μmol/100 g body weight), or BZ 52 (50 μmol/100 g body weight). […] Data are corrected for organ mass and presented as mean±SD from one representative experiment.
Cytofluorometric cell counts of MBP-specific GFP T cells in spleen A and CNS B of BZ194 (500 μmol) and DMSO-treated animals at d 3 after T cell transfer.
Cytofluorometric counts of T cells (CD4/8, abTCR), monocytes/macrophages (CD11b), dendritic cells (CD11c), B cells (OX33/CD45RA) and LFA-1+ (CD11a) and MHC class II+ (OX-6) cells in EAE lesions 4 days after T cell transfer after BZ194 (5 d, 500 μmol, blue bars) or vehicle (DMSO, magenta bars).
Single cell suspensions from organs were prepared as described previously (Flügel et al. 2001, Immunity). TGFP cells were sorted immediately after cell preparation in PBS containing 2% glucose at 4° C. using FACS Vantage (Becton Dickinson) or MoFlo sorter (Cytomation Bioinstruments, Freiburg, Germany). Cytofluorometric analysis was performed with FACS-Calibur operated by Cell Quest software (Becton Dickinson). The following monoclonal antibodies were used for surface membrane analysis: W3/25 (anti-CD4), OX33 (CD45RA, B cells, both from Serotec, Düsseldorf, Germany), R73 (abTCR), OX-6 (rat MHC class II), OX-40 antigen (CD134), OX-39 (CD25, IL-2Ra chain), CD8a, CD8b, CD11a (LFA-1a), CD11b (integrin aM chain), CD11b/c (OX42), CD11c (integrin aX chain) (all Becton Dickinson, Heidelberg, Germany). Allophycocyanin-labeled anti-mouse antibody (Invitrogen, Karlsruhe, Germany) was used as secondary antibody.

SMILES | TCR/CD3-induced Ca2+ signalling [1] | Ca2+ signalling upon CD3-crosslinking ([1]; preincubation 60 min with 500 μM BZ52) | IC50 ([2]; light or radiation study, MBP presented by irradiated thymocytes, read-out: IC50, MBP mediated proliferation) [µM] | IC50 ([2]; ConA 1.25 μg/ml, read-out: IC50, ConA mediated proliferation) [µM] | proliferation [2] | number of encephalitogenic T cells ([3]; day 4 post transfer, 50 μmol/100 g i.p. twice per day) | decrease of number of CNS-infiltrating encephalitogenic T cells ([3]; day 4 post transfer, 50 μmol/100 g i.p. twice per day, one animal per group) | TCR/CD3 complex mediated Ca2+ signalling ([1]; MBP-specific rat T cell suspensions, standard and Ca2+-free/Ca2+-reintroduction protocol) | sustained Ca2+ signalling ([1]; both protocols, MBP-specific rat T cells) | T cell proliferation ([2]; MBP-pulsed irradiated APCs, increasing concentrations of BZ194, 48 h) | proliferative response towards MBP challenge ([2]; after foregoing incubation with 0.5 mM or 1 mM BZ194) | viability and reactivity of TMBP-GFP cells ([2]; cells isolated ex vivo from BZ194-treated animals, challenge with MBP (not shown)) | recruitment of T cells, B cells, macrophages and dendritic cells into the CNS ([3]; 4 days after T cell transfer, BZ194 5 d, 500 μmol) | infiltration of MBP-specific T cells into the CNS ([3]; spinal cord, three days after T cell transfer, BZ194 500 μmol) | distribution of TMBP-GFP cells in spleen ([3]; three days after T cell transfer, BZ194 500 μmol)
CCCCN(CCCC)C(=O)C[n+]1cccc(C(=O)O)c1 [BZ52, 3-Carboxy-1-dibutylcarbamoylmethyl-pyridinium] | efficiently inhibited | significantly inhibited | ~500 | ~100 | efficiently inhibited | reduced significantly | about 50% |  |  |  |  |  |  |  | 
CCCCCCCCNC(=O)C[n+]1cccc(C(=O)O)c1.[Br-] [BZ194, 3-Carboxy-1-Octylcarbamoylmethyl-Pyridinium] | efficiently inhibited |  |  |  | efficiently inhibited |  |  | partially blocked | almost completely abolished | anti-proliferative effect; also recorded: dose dependently suppressed | did not block | remained viable and fully reactive | clearly diminished | reduced; also recorded: seemed to interfere | accumulated in the spleen

Reference: patent US20070105810A1, “THERAPEUTICS” (priority 2003, published 2007)
